Earlier results on 13 compounds are cited in patent US12576017B2, “Sunscreen composition with enhanced photoprotection” (Edgewell Personal Care Brands, LLC, priority 2021, dated 2026).

The conditions of the series: lipid/water partition.

Turning to `COc1cc(O)c(C(=O)c2ccccc2)cc1S(=O)(=O)O` [Benzophenone-4, 2-hydroxy-4-methoxybenzophenone-5-sulfonic acid], the “Log P @25° C.” value was −1.51.
As for `CC1CC(OC(=O)c2ccccc2O)CC(C)(C)C1` (stereo not shown) [Homosalate, Homomenthyl salicylate], the “Log P @25° C.” value is 5.61.
Take `Nc1ccc(C(=O)OCC(O)CO)cc1` (stereo not shown) [Glyceryl PABA, 1,2,3-Propanetriol,1-(4-aminobenzoate)]: the “Log P @25° C.” value is given as −0.02.
As to `CCCCC(CC)COC(=O)C(C#N)=C(c1ccccc1)c1ccccc1` (stereo not shown) [Octocrylene, Octyl cyanodiphenylacrylate], the “Log P @25° C.” value is on record as 5.69.
With `CCOCCOC(=O)/C=C/c1ccc(OC)cc1` [Cinoxate, Ethoxyethyl methoxy cinnamate], the “Log P @25° C.” value is given as 2.55.
Take `CCOC(=O)c1ccc(N(CC(C)O)CC(C)O)cc1` (stereo not shown) [Ethyl dihydroxypropyl PABA, Ethyl-4-bis(2-hydroxypropyl-aminobenzoate)]: the “Log P @25° C.” value is listed as 2.84.
`CCCCC(CC)COC(=O)c1ccc(N(C)C)cc1` (stereo not shown) [Octyl dimethyl PABA, 2-Ethylhexyl-p-dimethyl aminobenzoate]: the “Log P @25° C.” value is listed as 6.08.
For `CCCCC(CC)COC(=O)C=Cc1ccc(OC)cc1` (stereo not shown) [Octyl methoxy cinnamate, Ethylhexyl-p-methoxy cinnamate], the “Log P @25° C.” value is recorded as 5.65.
As for `COc1ccc(C(=O)c2ccccc2)c(O)c1` [Benzophenone-3, 2-hydroxy-4-methoxybenzophenone], the “Log P @25° C.” value was 2.63.
On to `Nc1ccc(C(=O)O)cc1` [PABA, p-Amino benzoic acid], for which the “Log P @25° C.” value is 0.74.
As to `CCCCC(CC)COC(=O)c1ccccc1O` (stereo not shown) [Octyl salicylate, 2-Ethylhexyl salicylate], the “Log P @25° C.” value is 5.30.
In the case of `CC1CCC(C(C)C)C(OC(=O)c2ccccc2N)C1` (stereo not shown) [Menthyl anthranilate, Menthyl-O aminobenzoate], the “Log P @25° C.” value is given as 5.05.
Take `COc1ccc(C(=O)c2ccccc2O)c(O)c1` [Benzophenone-8, 2,2′-dihydroxy-4-methoxybenzophenone]: the “Log P @25° C.” value is recorded as 2.15.
